According to the supplement of paper PMC5908809:

Legend:
YT (IL-2 2.5 ng/mL) [1] = experiment: percent inhibition of viability; higher = more inhibition; settings: 72 h
NK-YS (IL-2 2.5 ng/mL) [2] = experiment: as above; settings: 72 h
DERL-7 (IL-2 2.5 ng/mL) [3] = experiment: as above; settings: 72 h
KAI3 (IL-2 2.5 ng/mL) [4] = experiment: as above; settings: 72 h
[5] = system: normal primary NK cells, pool 1 (3 donors) (IL-2 2.5 ng/mL); experiment: as above; settings: 72 h
[6] = system: normal primary NK cells, pool 3 (3 donors) (IL-2 2.5 ng/mL); experiment: as above; settings: 72 h
SNK-6 (IL-2 2.5 ng/mL) [7] = experiment: as above; settings: 72 h
NKL (IL-2 2.5 ng/mL) [8] = experiment: as above; settings: 72 h
IMC-1 (IL-2 20 ng/mL) [9] = experiment: as above; settings: 72 h
[10] = system: normal primary NK cells, pool 1 (3 donors), resting (IL-2 0 ng/mL); experiment: as above; settings: 72 h
[11] = system: normal primary NK cells, pool 2 (3 donors) (IL-2 2.5 ng/mL); experiment: as above; settings: 72 h
NK-92 (IL-2 2.5 ng/mL) [12] = experiment: as above; settings: 72 h
KHYG-1 (IL-2 2.5 ng/mL) [13] = experiment: as above; settings: 72 h
[14] = system: normal NK cells expanded with K562-aAPC; experiment: as above; settings: 72 h, IL-2 2.5 ng/mL
Description: (§1)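 Drug sensitivity and resistance testing on K562-aAPC-expanded normal NK cells: 5 concentrations (10-fold steps over a 10,000-fold range), 72 h at 37 °C, viability by CellTiter-Glo normalised to DMSO and benzethonium chloride controls; DSS from the fitted curve.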

[15] = system: normal NK cells expanded with K562-aAPC; experiment: drug sensitivity score (DSS) (DSS units); higher = more sensitive; extreme values may be limits of the assay; settings: 72 h; IL-2 2.5 ng/mL
Description: as §1

YT (IL-2 2.5 ng/mL) [16] = experiment: as above; settings: 72 h
NK-YS (IL-2 2.5 ng/mL) [17] = experiment: as above; settings: 72 h
DERL-7 (IL-2 2.5 ng/mL) [18] = experiment: as above; settings: 72 h
KAI3 (IL-2 2.5 ng/mL) [19] = experiment: as above; settings: 72 h
[20] = system: normal primary NK cells, pool 1 (3 donors) (IL-2 2.5 ng/mL); experiment: as above; settings: 72 h
[21] = system: normal primary NK cells, pool 3 (3 donors) (IL-2 2.5 ng/mL); experiment: as above; settings: 72 h
SNK-6 (IL-2 2.5 ng/mL) [22] = experiment: as above; settings: 72 h
NKL (IL-2 2.5 ng/mL) [23] = experiment: as above; settings: 72 h
IMC-1 (IL-2 20 ng/mL) [24] = experiment: as above; settings: 72 h
[25] = system: normal primary NK cells, pool 1 (3 donors), resting (IL-2 0 ng/mL); experiment: as above; settings: 72 h
[26] = system: normal primary NK cells, pool 2 (3 donors) (IL-2 2.5 ng/mL); experiment: as above; settings: 72 h
NK-92 (IL-2 2.5 ng/mL) [27] = experiment: as above; settings: 72 h
KHYG-1 (IL-2 2.5 ng/mL) [28] = experiment: as above; settings: 72 h

Cc1ccc(NC(=O)c2ccc(CN3CC[C@H](N(C)C)C3)c(C(F)(F)F)c2)cc1Nc1nccc(-c2cncnc2)n1 [Bafetinib] (max concentration tested 1000 nM)
percent inhibition of viability [%]
Settings | 0.1 nM | 1 nM | 10 nM | 100 nM | 1000 nM
DERL-7 (IL-2 2.5 ng/mL) [3] | -14 | 2.29 | -3.89 | -8.4 | 14.2
IMC-1 (IL-2 20 ng/mL) [9] | -6.49 | -4.43 | -0.85 | 0.31 | 1.78
KAI3 (IL-2 2.5 ng/mL) [4] | 0.47 | 0.29 | 2.91 | 12 | 41.7
KHYG-1 (IL-2 2.5 ng/mL) [13] | -4.48 | -4.63 | 1.74 | 7.43 | 22.3
NK-92 (IL-2 2.5 ng/mL) [12] | -11.6 | -4.05 | 0.45 | 9.61 | 26.8
NK-YS (IL-2 2.5 ng/mL) [2] | -4.77 | -6.95 | -3.78 | -1.77 | 18.9
NKL (IL-2 2.5 ng/mL) [8] | 5.49 | -2.75 | 4.28 | 18 | 50.2
SNK-6 (IL-2 2.5 ng/mL) [7] | -21 | 16.9 | -16.6 | -25.9 | -21.8
YT (IL-2 2.5 ng/mL) [1] | -6.07 | -5.69 | -1.09 | 1.37 | 19.6
[5] | -1.48 | -8.42 | -2.74 | 1.21 | 12
[6] | -3.5 | -5.78 | -5.64 | -5.35 | 13.7
[10] | -11.6 | -4.75 | 5.74 | -0.62 | 2.62
[11] | -9.03 | -9.08 | -6.83 | 2.13 | 11.8
[14] | -3.13 | -5.16 | -2.83 | 2.67 | 30.9

Settings | drug sensitivity score
DERL-7 (IL-2 2.5 ng/mL) [18] | 0.06
IMC-1 (IL-2 20 ng/mL) [24] | 0
KAI3 (IL-2 2.5 ng/mL) [19] | 3.8
KHYG-1 (IL-2 2.5 ng/mL) [28] | 1.5
NK-92 (IL-2 2.5 ng/mL) [27] | 2.35
NK-YS (IL-2 2.5 ng/mL) [17] | 0.42
NKL (IL-2 2.5 ng/mL) [23] | 4.77
SNK-6 (IL-2 2.5 ng/mL) [22] | 0
YT (IL-2 2.5 ng/mL) [16] | 0.72
[15] | 1.77
[20] | 0.1
[21] | 0.06
[25] | 0
[26] | 0.12

CC(O)(CS(=O)(=O)c1ccc(F)cc1)C(=O)Nc1ccc(C#N)c(C(F)(F)F)c1 (stereo not drawn) [Bicalutamide] (max concentration tested 10000 nM)
percent inhibition of viability [%]
Settings | 1 nM | 10 nM | 100 nM | 1000 nM | 10000 nM
DERL-7 (IL-2 2.5 ng/mL) [3] | 1.65 | 7.46 | -4.98 | 5.71 | 5.22
IMC-1 (IL-2 20 ng/mL) [9] | 3.29 | 5.96 | 8.36 | 9.75 | 42.3
KAI3 (IL-2 2.5 ng/mL) [4] | 14.6 | 10.8 | 21.5 | 20.8 | 43.6
KHYG-1 (IL-2 2.5 ng/mL) [13] | 3.99 | 22.1 | 3.98 | 27.4 | 19.9
NK-92 (IL-2 2.5 ng/mL) [12] | 10.3 | 8.57 | 4.92 | 20.1 | 30.6
NK-YS (IL-2 2.5 ng/mL) [2] | 9.7 | 4 | 13.7 | 9.96 | 23.5
NKL (IL-2 2.5 ng/mL) [8] | 0.19 | 16.2 | 5.15 | 40.3 | 35.9
SNK-6 (IL-2 2.5 ng/mL) [7] | 9.4 | 13.4 | 4.02 | 9.59 | 26.6
YT (IL-2 2.5 ng/mL) [1] | 3.05 | 13.5 | 3.8 | 17.9 | 16.7
[5] | -3.4 | -8.36 | -1.19 | -15.8 | 6.46
[6] | 3.23 | -2.54 | 5.11 | -2.8 | -0.48
[10] | 2.97 | -8.07 | -9.37 | -26.1 | -10.4
[11] | -0.02 | -1.32 | -0.86 | -0.13 | 7.12
[14] | 5.68 | 3.24 | 1.15 | 11.5 | 13.4

Settings | drug sensitivity score
DERL-7 (IL-2 2.5 ng/mL) [18] | 0
IMC-1 (IL-2 20 ng/mL) [24] | 3.5
KAI3 (IL-2 2.5 ng/mL) [19] | 7.75
KHYG-1 (IL-2 2.5 ng/mL) [28] | 4.48
NK-92 (IL-2 2.5 ng/mL) [27] | 3.61
NK-YS (IL-2 2.5 ng/mL) [17] | 2.2
NKL (IL-2 2.5 ng/mL) [23] | 8.09
SNK-6 (IL-2 2.5 ng/mL) [22] | 2.16
YT (IL-2 2.5 ng/mL) [16] | 1.84
[15] | 0.74
[20] | 0
[21] | 0
[25] | 0
[26] | 0
